The IC50 is the concentration at which inhibition is half-maximal. Read a high IC50 as a need for much substance.

This is an account of results in patent publication US9399646B2 (Genentech, Inc., priority 2010, dated 2016).

In one experiment the test system is MCF-7 cells. Put plainly: Breast cancer cell viability assay (CellTiter-Glo, 5 days). It is filed as cell-based. The note with it: 5 days' compound exposure; for IC50: Homo sapiens, MCF7, 120 h. Put shortly: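 Eleven-point semilog compound series, final 0.3-0.000003 μM, added to overnight-adhered MCF-7 cells (320/well; RPMI, 10% FBS, 20 mM HEPES) for 5 days. Viability read by CellTiter-Glo luminescence, background from medium without cells subtracted, expressed relative to untreated cells.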
In general terms: ATP-based viability assays read luminescence as a measure of living cells.

The next experiment has as its target T1, ER-α in MCF-7 cells (Homo sapiens, UniProt P03372).
T1 sequence (P03372 1-595): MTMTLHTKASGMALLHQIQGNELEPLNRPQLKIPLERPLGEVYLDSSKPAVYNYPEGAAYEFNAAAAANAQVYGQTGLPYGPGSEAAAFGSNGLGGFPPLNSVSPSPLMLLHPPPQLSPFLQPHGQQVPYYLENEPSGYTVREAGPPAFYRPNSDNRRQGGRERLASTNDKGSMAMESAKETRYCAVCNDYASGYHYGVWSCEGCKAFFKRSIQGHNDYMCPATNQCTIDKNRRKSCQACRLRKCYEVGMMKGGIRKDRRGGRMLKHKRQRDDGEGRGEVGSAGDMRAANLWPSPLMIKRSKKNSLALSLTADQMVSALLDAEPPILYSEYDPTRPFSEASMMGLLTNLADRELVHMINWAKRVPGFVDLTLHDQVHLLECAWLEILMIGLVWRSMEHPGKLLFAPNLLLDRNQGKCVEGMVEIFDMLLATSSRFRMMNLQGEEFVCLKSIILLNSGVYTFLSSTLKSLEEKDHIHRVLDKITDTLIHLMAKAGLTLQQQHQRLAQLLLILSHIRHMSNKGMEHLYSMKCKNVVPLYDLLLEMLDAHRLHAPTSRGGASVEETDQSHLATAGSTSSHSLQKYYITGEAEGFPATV
Kind of experiment: Breast cancer cell ER-α in cell western assay (SP1). The format is cell-based. On the set-up: endogenous in cells; host or cells: MCF-7. The note with it: 4 or 24 hr post compound addition; for Emax: MCF7, SP1 antibody, read-out: ER-α In Cell Western Assay (SP1) Max Response; for DC50: SP1 antibody, read-out: ER-α In Cell Western Assay (SP1) IC50. Put shortly: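 Percent remaining ER: SP1 immunofluorescence normalized to DRAQ5 nuclear stain, compared with untreated controls. Treatment lasted 4 or 24 hr across 0.3–0.000003 μM final in MCF-7.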

For `CC/C(=C(/c1ccc(/C=C/C(=O)O)cc1)c1ccc2c(cnn2-c2cccnc2)c1)c1ccccc1` [Compound 145, (E)-3-(4-((E)-2-Phenyl-1-(1-(pyridin-3-yl)-1H-indazol-5-yl)but-1-en-1-yl)phenyl)acrylic acid], in the experiment with MCF-7 cells, the “MCF7 Viability Assay Max Response” value was “++ (++ = a single % value ≧ 40%)” and the IC50 was above 100 nM. On ER-α in MCF-7 cells, the Emax is at least 40% and the DC50 was above 100 nM.

For `CC/C(=C(/c1ccc(/C=C/C(=O)O)cc1)c1ccc2[nH]ncc2c1)c1ccc(Oc2ccccc2)cc1C` [Compound 319, (E)-3-(4-((E)-1-(1H-Indazol-5-yl)-2-(2-methyl-4-phenoxyphenyl)but-1-en-1-yl)phenyl)acrylic acid], in the experiment on MCF-7 cells, the “MCF7 Viability Assay Max Response” value was “++ (++ = a single % value ≧ 40%)” and the IC50 was at most 100 nM. In addition, on ER-α in MCF-7 cells, the Emax is at least 40% and the DC50 was at most 100 nM.

In the case of `CC/C(=C(/c1ccc(/C=C/C(=O)O)cc1)c1ccc2[nH]ncc2c1)c1ccc(C(=O)NC)cc1F` [Compound 213, (E)-3-(4-((E)-2-(2-Fluoro-4-(methylcarbamoyl)phenyl)-1-(1H-indazol-5-yl)but-1-en-1-yl)phenyl)acrylic acid], in the experiment with MCF-7 cells, the “MCF7 Viability Assay Max Response” value is listed as “+ (+ = a single % value < 40%)” and the IC50 is above 100 nM. Moreover, at ER-α in MCF-7 cells, the Emax was at least 40% and the DC50 was above 100 nM.

For the compound `CC/C(=C(/c1ccc(/C=C/C(=O)O)cc1)c1ccc2[nH]ncc2c1)c1cccc(OCCCCC(=O)O)c1` [Compound 352, 5-(3-((E)-1-(4-((E)-2-Carboxyvinyl)phenyl)-1-(1H-indazol-5-yl)but-1-en-2-yl)phenoxy)pentanoic acid], in the experiment on MCF-7 cells, the “MCF7 Viability Assay Max Response” value is reported as “+ (+ = a single % value < 40%)” and the 50% inhibitory concentration (IC50) was above 100 nM. Moreover, on ER-α in MCF-7 cells, the Emax was at least 40% and the DC50 is above 100 nM.

Take `CC/C(=C(/c1ccc(/C=C/C(=O)O)cc1)c1ccc2scnc2c1)c1ccc(F)cc1Cl` [Compound 275, (E)-3-(4-((E)-1-(Benzo[d]thiazol-5-yl)-2-(2-chloro-4-fluorophenyl)but-1-en-1-yl)phenyl)acrylic acid]: in the experiment with MCF-7 cells, the “MCF7 Viability Assay Max Response” value was “++ (++ = a single % value ≧ 40%)” and the 50% inhibitory concentration (IC50) is at most 100 nM. At ER-α in MCF-7 cells, the Emax was at least 40% and the DC50 is at most 100 nM.

Turning to `CC/C(=C(/c1ccc(/C=C/C(=O)O)cc1)c1ccc2scnc2c1)c1ccc(F)cc1C` [Compound 282, (E)-3-(4-((E)-1-(Benzo[d]thiazol-5-yl)-2-(4-fluoro-2-methylphenyl)but-1-en-1-yl)phenyl)acrylic acid], in the experiment with MCF-7 cells, the “MCF7 Viability Assay Max Response” value is given as “++ (++ = a single % value ≧ 40%)” and the IC50 was at most 100 nM. At ER-α in MCF-7 cells, the Emax is at least 40% and the DC50 was at most 100 nM.

With `CC/C(=C(/c1ccc(/C=C/C(=O)O)cc1)c1ccc2[nH]ncc2c1)c1cccc(Oc2ccccc2)c1F` [Compound 298, (E)-3-(4-((E)-2-(2-Fluoro-3-phenoxyphenyl)-1-(1H-indazol-5-yl)but-1-en-1-yl)phenyl)acrylic acid], in the experiment on MCF-7 cells, the “MCF7 Viability Assay Max Response” value is given as “++ (++ = a single % value ≧ 40%)” and the half-maximal inhibitory concentration (IC50) is at most 100 nM. In addition, on ER-α in MCF-7 cells, the Emax was at least 40% and the DC50 is at most 100 nM.

For the compound `CCCCCS(=O)(=O)NC(=O)/C=C/c1ccc(/C(=C(/CC)c2ccc(F)cc2Cl)c2ccc3[nH]ncc3c2)cc1` [Compound 410, (E)-3-(4-((E)-2-(2-Chloro-4-fluorophenyl)-1-(1H-indazol-5-yl)but-1-en-1-yl)phenyl)-N-(pentylsulfonyl)acrylamide], in the experiment with MCF-7 cells, the “MCF7 Viability Assay Max Response” value was “++ (++ = a single % value ≧ 40%)” and the IC50 is at most 100 nM. Further, on ER-α in MCF-7 cells, the Emax was at least 40% and the DC50 was at most 100 nM.

For the compound `CC/C(=C(/c1ccc(/C=C/C(=O)O)cc1)c1ccc2[nH]ncc2c1)c1ccc(-c2nccs2)cc1` [Compound 387, (E)-3-(4-((E)-1-(1H-Indazol-5-yl)-2-(4-(thiazol-2-yl)phenyl)but-1-en-1-yl)phenyl)acrylic acid], in the experiment with MCF-7 cells, the “MCF7 Viability Assay Max Response” value is “++ (++ = a single % value ≧ 40%)” and the IC50 was above 100 nM. On ER-α in MCF-7 cells, the Emax is at least 40% and the DC50 is at most 100 nM.

Take `CC/C(=C(/c1ccc(/C=C/C(=O)NS(C)(=O)=O)cc1)c1ccc2c(cnn2C)c1)c1ccc(F)cc1Cl` [Compound 424, (E)-3-(4-((E)-2-(2-Chloro-4-fluorophenyl)-1-(1-methyl-1H-indazol-5-yl)but-1-en-1-yl)phenyl)-N-(methylsulfonyl)acrylamide]: in the experiment with MCF-7 cells, the “MCF7 Viability Assay Max Response” value was “++ (++ = a single % value ≧ 40%)” and the concentration for half-maximal inhibition (IC50) was above 100 nM. In addition, at ER-α in MCF-7 cells, the Emax is at least 40% and the DC50 was at most 100 nM.

In the case of `CC/C(=C(/c1ccc(CCC(=O)O)cc1)c1ccc2[nH]ncc2c1)c1ccccc1` [Compound 338, (E)-3-(4-(1-(1H-Indazol-5-yl)-2-phenylbut-1-en-1-yl)phenyl)propanoic acid], in the experiment on MCF-7 cells, the “MCF7 Viability Assay Max Response” value is recorded as “++ (++ = a single % value ≧ 40%)” and the IC50 was above 100 nM. Moreover, on ER-α in MCF-7 cells, the Emax was at least 40% and the DC50 was at most 100 nM.

`CC/C(=C(/c1ccc(OCC(=O)O)cc1)c1ccc2[nH]ncc2c1)c1ccccc1` [Compound 190, (E)-2-(4-(1-(1H-Indazol-5-yl)-2-phenylbut-1-en-1-yl)phenoxy)acetic acid]: in the experiment on MCF-7 cells, the “MCF7 Viability Assay Max Response” value is “++ (++ = a single % value ≧ 40%)” and the half-inhibitory concentration (IC50) was above 100 nM. Besides, at ER-α in MCF-7 cells, the Emax was at least 40% and the DC50 was above 100 nM.

As for `CC/C(=C(/c1ccc(/C=C/C(=O)O)cc1)c1cc(F)cc2[nH]ncc12)c1ccccc1` [Compound 86, (E)-3-(4-((E)-1-(6-Fluoro-1H-indazol-4-yl)-2-phenylbut-1-en-1-yl)phenyl)acrylic acid], in the experiment with MCF-7 cells, the “MCF7 Viability Assay Max Response” value is recorded as “++ (++ = a single % value ≧ 40%)” and the 50% inhibitory concentration (IC50) was at most 100 nM. Moreover, at ER-α in MCF-7 cells, the Emax is at least 40% and the DC50 is at most 100 nM.

In the case of `CC/C(=C(/c1ccc(/C=C/C(=O)O)cc1)c1ccc2[nH]ncc2c1)c1cncnc1` [Compound 220, (E)-3-(4-((E)-1-(1H-Indazol-5-yl)-2-(pyrimidin-5-yl)but-1-en-1-yl)phenyl)acrylic acid], in the experiment on MCF-7 cells, the “MCF7 Viability Assay Max Response” value was “+ (+ = a single % value < 40%)” and the half-maximal inhibitory concentration (IC50) is above 100 nM. In addition, on ER-α in MCF-7 cells, the Emax is below 40% and the DC50 is above 100 nM.

`CC/C(=C(/c1ccc(/C=C/c2noc(=O)[nH]2)cc1)c1ccc2[nH]ncc2c1)c1ccccc1` [Compound 435, 3-((E)-4-((E)-1-(1H-Indazol-5-yl)-2-phenylbut-1-en-1-yl)styryl)-1,2,4-oxadiazol-5(4H)-one]: in the experiment with MCF-7 cells, the “MCF7 Viability Assay Max Response” value is reported as “++ (++ = a single % value ≧ 40%)” and the concentration for half-maximal inhibition (IC50) was at most 100 nM. At ER-α in MCF-7 cells, the Emax was at least 40% and the DC50 is at most 100 nM.

With `CC/C(=C(/c1ccc(/C=C/C(=O)O)cc1)c1ccc2nsnc2c1)c1ccccc1` [Compound 144, (E)-3-(4-((E)-1-(Benzo[c][1,2,5]thiadiazol-5-yl)-2-phenylbut-1-en-1-yl)phenyl)acrylic acid], in the experiment on MCF-7 cells, the “MCF7 Viability Assay Max Response” value was “++ (++ = a single % value ≧ 40%)” and the half-inhibitory concentration (IC50) is above 100 nM. Further, on ER-α in MCF-7 cells, the Emax was at least 40% and the DC50 was above 100 nM.

With `CC/C(=C(/c1ccc(/C=C/C(=O)O)cc1)c1ccc2[nH]ncc2c1)c1cccnc1C(F)(F)F` [Compound 222, (E)-3-(4-((E)-1-(1H-Indazol-5-yl)-2-(2-(trifluoromethyl)pyridin-3-yl)but-1-en-1-yl)phenyl)acrylic acid], in the experiment with MCF-7 cells, the “MCF7 Viability Assay Max Response” value was “++ (++ = a single % value ≧ 40%)” and the half-maximal inhibitory concentration (IC50) is at most 100 nM. At ER-α in MCF-7 cells, the Emax was at least 40% and the DC50 was at most 100 nM.

Take `CC/C(=C(/c1ccc(/C=C/C(=O)O)cc1)c1ccc2[nH]ncc2c1)c1ccc2sc(C)nc2c1` [Compound 273, (E)-3-(4-((E)-1-(1H-Indazol-5-yl)-2-(2-methylbenzo[d]thiazol-5-yl)but-1-en-1-yl)phenyl)acrylic acid]: in the experiment with MCF-7 cells, the “MCF7 Viability Assay Max Response” value was “++ (++ = a single % value ≧ 40%)” and the IC50 is at most 100 nM. Moreover, on ER-α in MCF-7 cells, the Emax is at least 40% and the DC50 was at most 100 nM.

Consider `CC/C(=C(/c1ccc(/C=C/C(=O)O)cc1)c1ccc2[nH]ncc2c1)c1cccc(OCCCC(=O)O)c1` [Compound 351, 4-(3-((E)-1-(4-((E)-2-Carboxyvinyl)phenyl)-1-(1H-indazol-5-yl)but-1-en-2-yl)phenoxy)butanoic acid], for which, in the experiment on MCF-7 cells, the “MCF7 Viability Assay Max Response” value is recorded as “+ (+ = a single % value < 40%)” and the 50% inhibitory concentration (IC50) is above 100 nM. For the same compound, on ER-α in MCF-7 cells, the Emax is at least 40% and the DC50 is above 100 nM.
